Data from EP4810052A2, “HCRHR2 SELECTIVE POLYPEPTIDES” (Gubra A/S, priority 2023, dated 2026).
Where two headings read alike, the source gives them in different places. Starred links: 1 amine or outer side, 2 acyl side, 3 side chain; linkers in the order of their positions; H or OH if unused. Non-standard residues stand in square brackets, D forms with d. Residues, ends and D or L forms follow the SMILES beside them. Groups on a side chain read outwards from the residue. *: point of attachment. C20 diacid = O=C(O)CCCCCCCCCCCCCCCCCCC(=O)*; γGlu = O=C(O)[C@H](CCC(=O)[*:2])N[*:1]; Nle = CCCC[C@H](N)C(=O)O; AEEA = NCCOCCOCC(=O)O

Assays:
[1] = target: T1, hCRHR1 (Homo sapiens, UniProt P34998); test: HTRF cAMP assay, determination of hCRHR1 potency (peptide libraries 5 conc., purified peptides 11 conc.); format: cell-based
T1 sequence (P34998 24-415): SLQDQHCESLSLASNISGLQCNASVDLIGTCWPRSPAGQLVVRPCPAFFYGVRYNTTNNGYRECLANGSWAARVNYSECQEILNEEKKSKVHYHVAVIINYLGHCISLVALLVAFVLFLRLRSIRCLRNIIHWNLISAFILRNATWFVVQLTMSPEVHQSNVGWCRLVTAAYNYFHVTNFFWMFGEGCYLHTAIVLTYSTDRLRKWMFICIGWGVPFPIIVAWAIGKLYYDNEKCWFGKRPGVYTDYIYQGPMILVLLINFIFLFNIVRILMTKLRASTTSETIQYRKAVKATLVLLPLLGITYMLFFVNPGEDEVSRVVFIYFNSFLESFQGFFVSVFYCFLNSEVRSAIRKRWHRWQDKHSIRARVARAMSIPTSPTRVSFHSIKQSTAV
Procedure, shortened: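 CHO-K1 cells stably expressing human CRHR1, thawed from frozen stocks just before use, were stimulated in suspension with agonist peptides. cAMP was measured by HTRF competitive immunoassay (cryptate anti-cAMP antibody vs d2-cAMP).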

[2] = target: T2, hCRHR2 (Homo sapiens, UniProt Q13324); test: HTRF cAMP assay, determination of hCRHR2 potency (peptide libraries 5 conc., purified peptides 11 conc.); format: cell-based
T2 sequence (Q13324 1-411): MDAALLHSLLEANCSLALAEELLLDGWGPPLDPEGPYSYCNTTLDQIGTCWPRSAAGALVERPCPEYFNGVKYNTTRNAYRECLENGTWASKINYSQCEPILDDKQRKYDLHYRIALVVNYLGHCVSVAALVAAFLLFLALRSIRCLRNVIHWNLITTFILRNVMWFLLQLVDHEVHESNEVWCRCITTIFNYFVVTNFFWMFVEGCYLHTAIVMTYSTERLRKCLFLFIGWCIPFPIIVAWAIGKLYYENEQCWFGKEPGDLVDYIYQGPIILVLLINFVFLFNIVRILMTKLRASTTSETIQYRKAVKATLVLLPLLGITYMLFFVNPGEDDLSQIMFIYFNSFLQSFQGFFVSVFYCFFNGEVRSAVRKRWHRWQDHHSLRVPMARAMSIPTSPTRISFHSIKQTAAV
Procedure, shortened: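 Agonist peptides are added to suspended, freshly thawed CHO-K1 cells that stably carry the human receptor. Intracellular cAMP competes with d2-cAMP for a cryptate-tagged antibody, lowering the FRET signal. A variable-slope sigmoid curve is fitted to obtain EC50.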

[3] = library peptides, matched molecular pairs L vs Nle in position X^38, read-out: Potency hCRHR1 pEC50 (converted)
[4] = library peptides, matched molecular pairs L vs Nle in position X^38, read-out: Potency hCRHR2 pEC50 (converted)
[5] = Table 3, matched molecular pairs X^38 L vs Nle, peptide library of Example 4, read-out: hCRHR1 pEC50 (converted)
[6] = Table 3, matched molecular pairs X^38 L vs Nle, peptide library of Example 4, read-out: hCRHR2 pEC50 (converted)

EC50 [1, 3] [nM] | EC50 [2, 4] [nM] | EC50 [1, 5] [nM] | EC50 [2, 6] [nM] | Selectivity ratio (hCRHR1/ hCRHR2) ([2]; Table 5) | EC50 ([2]; Table 5, purified peptides, read-out: hCRHR2 EC50) [nM] | SMILES
158000 | 0.631 |  |  |  |  | CC[C@H](C)[C@H](N)C(=O)N[C@H](C(=O)N[C@@H](CC(C)C)C(=O)N[C@@H](CO)C(=O)N[C@@H](CC(C)C)C(=O)N[C@@H](CC(=O)O)C(=O)N[C@H](C(=O)N1CCC[C@H]1C(=O)N[C@H](C(=O)NCC(=O)N[C@@H](CC(C)C)C(=O)N[C@@H](CC(C)C)C(=O)N[C@@H](CCC(N)=O)C(=O)N[C@H](C(=O)N[C@@H](CC(C)C)C(=O)N[C@@H](CC(C)C)C(=O)N[C@@H](CO)C(=O)N[C@@H](CCC(N)=O)C(=O)N[C@@H](C)C(=O)N[C@@H](CCCNC(=N)N)C(=O)N[C@@H](C)C(=O)N[C@@H](CCCNC(=N)N)C(=O)N[C@@H](C)C(=O)N[C@@H](C)C(=O)N[C@@H](CCCNC(=N)N)C(=O)N[C@@H](CCC(=O)O)C(=O)N[C@@H](CCC(N)=O)C(=O)N[C@@H](C)C(=O)N[C@@H](CCCCNC(=O)COCCOCCNC(=O)COCCOCCNC(=O)CC[C@H](NC(=O)CC[C@H](NC(=O)CCCCCCCCCCCCCCCCCCC(=O)O)C(=O)O)C(=O)O)C(=O)N[C@H](C(=O)N[C@@H](CC(N)=O)C(=O)N[C@@H](C)C(=O)N[C@@H](CCC(=O)O)C(=O)N[C@H](C(=O)N[C@@H](CC(C)C)C(=O)N[C@@H](C)C(=O)N[C@@H](CCC(=O)O)C(=O)N[C@H](C(N)=O)C(C)C)[C@@H](C)CC)[C@@H](C)O)[C@@H](C)CC)[C@@H](C)CC)C(C)C)C(C)C [compound 82] (H-IVLSLDVPIGLLQILLSQARARAAREQAK([AEEA-AEEA-γGlu-γGlu-C20 diacid])TNAEILAEV-NH2)
63100 | 0.251 |  |  |  |  | CC[C@H](C)[C@H](N)C(=O)N[C@H](C(=O)N[C@@H](CC(C)C)C(=O)N[C@@H](CO)C(=O)N[C@@H](CC(C)C)C(=O)N[C@@H](CC(=O)O)C(=O)N[C@H](C(=O)N1CCC[C@H]1C(=O)N[C@H](C(=O)NCC(=O)N[C@@H](CC(C)C)C(=O)N[C@@H](CC(C)C)C(=O)N[C@@H](CCC(N)=O)C(=O)N[C@H](C(=O)N[C@@H](CC(C)C)C(=O)N[C@@H](CC(C)C)C(=O)N[C@@H](CCC(=O)O)C(=O)N[C@@H](CCC(N)=O)C(=O)N[C@@H](C)C(=O)N[C@@H](CCCNC(=N)N)C(=O)N[C@@H](C)C(=O)N[C@@H](CCCNC(=N)N)C(=O)N[C@@H](C)C(=O)N[C@@H](C)C(=O)N[C@@H](CCCNC(=N)N)C(=O)N[C@@H](CCC(=O)O)C(=O)N[C@@H](CCC(N)=O)C(=O)N[C@@H](C)C(=O)N[C@@H](CCCCNC(=O)COCCOCCNC(=O)COCCOCCNC(=O)CC[C@H](NC(=O)CC[C@H](NC(=O)CCCCCCCCCCCCCCCCCCC(=O)O)C(=O)O)C(=O)O)C(=O)N[C@H](C(=O)N[C@@H](CC(N)=O)C(=O)N[C@@H](C)C(=O)N[C@@H](CCC(=O)O)C(=O)N[C@H](C(=O)N[C@@H](CC(C)C)C(=O)N[C@@H](C)C(=O)N[C@@H](CCC(=O)O)C(=O)N[C@H](C(N)=O)[C@@H](C)CC)[C@@H](C)CC)[C@@H](C)O)[C@@H](C)CC)[C@@H](C)CC)C(C)C)C(C)C [compound 68] (H-IVLSLDVPIGLLQILLEQARARAAREQAK([AEEA-AEEA-γGlu-γGlu-C20 diacid])TNAEILAEI-NH2)

More lines, now with the values behind:

SMILES | EC50 [1, 3] [nM] | EC50 [2, 4] [nM] | EC50 [1, 5] [nM] | EC50 [2, 6] [nM] | Selectivity ratio (hCRHR1/ hCRHR2) ([2]; Table 5) | EC50 ([2]; Table 5, purified peptides, read-out: hCRHR2 EC50) [nM]
CCCC[C@H](NC(=O)[C@@H](NC(=O)[C@H](CCC(=O)O)NC(=O)[C@H](C)NC(=O)[C@H](CC(N)=O)NC(=O)[C@@H](NC(=O)[C@H](CCCCNC(=O)COCCOCCNC(=O)COCCOCCNC(=O)CC[C@H](NC(=O)CC[C@H](NC(=O)CCCCCCCCCCCCCCCCCCC(=O)O)C(=O)O)C(=O)O)NC(=O)[C@H](C)NC(=O)[C@H](CCC(N)=O)NC(=O)[C@H](CCC(N)=O)NC(=O)[C@H](CCCNC(=N)N)NC(=O)[C@H](CC(C)C)NC(=O)[C@H](C)NC(=O)[C@H](CCC(=O)O)NC(=O)[C@H](C)NC(=O)[C@H](CCCNC(=N)N)NC(=O)[C@H](C)NC(=O)[C@H](CCC(N)=O)NC(=O)[C@H](CCC(=O)O)NC(=O)[C@H](CC(C)C)NC(=O)[C@H](CC(C)C)NC(=O)[C@@H](NC(=O)[C@H](CCC(N)=O)NC(=O)[C@H](CC(C)C)NC(=O)[C@H](CC(C)C)NC(=O)CNC(=O)[C@@H](NC(=O)[C@@H]1CCCN1C(=O)[C@@H](NC(=O)[C@H](CC(=O)O)NC(=O)[C@H](CC(C)C)NC(=O)[C@H](CO)NC(=O)[C@H](CC(C)C)NC(=O)[C@@H](NC(=O)[C@@H](N)[C@@H](C)CC)C(C)C)C(C)C)[C@@H](C)CC)[C@@H](C)CC)[C@@H](C)O)[C@@H](C)CC)C(=O)N[C@@H](C)C(=O)N[C@@H](CCC(=O)O)C(=O)N[C@H](C(N)=O)C(C)C [compound 59] (H-IVLSLDVPIGLLQILLEQARAEALRQQAK([AEEA-AEEA-γGlu-γGlu-C20 diacid])TNAEI[Nle]AEV-NH2) | 5.01 | 0.158 |  |  |  | 
CCCC[C@H](NC(=O)[C@@H](NC(=O)[C@H](CCC(=O)O)NC(=O)[C@H](C)NC(=O)[C@H](CC(N)=O)NC(=O)[C@@H](NC(=O)[C@H](CCCCNC(=O)COCCOCCNC(=O)COCCOCCNC(=O)CC[C@H](NC(=O)CC[C@H](NC(=O)CCCCCCCCCCCCCCCCCCC(=O)O)C(=O)O)C(=O)O)NC(=O)[C@H](C)NC(=O)[C@H](CCC(N)=O)NC(=O)[C@H](CCC(=O)O)NC(=O)[C@H](CCCNC(=N)N)NC(=O)[C@H](C)NC(=O)[C@H](C)NC(=O)[C@H](CCC(=O)O)NC(=O)[C@H](C)NC(=O)[C@H](CCCNC(=N)N)NC(=O)[C@H](C)NC(=O)[C@H](CCC(N)=O)NC(=O)[C@H](CCC(=O)O)NC(=O)[C@H](CC(C)C)NC(=O)[C@H](CC(C)C)NC(=O)[C@@H](NC(=O)[C@H](CCC(N)=O)NC(=O)[C@H](CC(C)C)NC(=O)[C@H](CC(C)C)NC(=O)CNC(=O)[C@@H](NC(=O)[C@@H]1CCCN1C(=O)[C@@H](NC(=O)[C@H](CC(=O)O)NC(=O)[C@H](CC(C)C)NC(=O)[C@H](CO)NC(=O)[C@H](CC(C)C)NC(=O)[C@@H](NC(=O)[C@@H](N)[C@@H](C)CC)C(C)C)C(C)C)[C@@H](C)CC)[C@@H](C)CC)[C@@H](C)O)[C@@H](C)CC)C(=O)N[C@@H](C)C(=O)N[C@@H](CCC(=O)O)C(=O)N[C@H](C(N)=O)C(C)C [SEQ ID NO: 26] (H-IVLSLDVPIGLLQILLEQARAEAAREQAK([AEEA-AEEA-γGlu-γGlu-C20 diacid])TNAEI[Nle]AEV-NH2) |  |  | 251 | 0.316 |  | 
CCCC[C@H](NC(=O)[C@@H](NC(=O)[C@H](CCC(=O)O)NC(=O)[C@H](C)NC(=O)[C@H](CC(N)=O)NC(=O)[C@@H](NC(=O)[C@H](CCCCNC(=O)COCCOCCNC(=O)COCCOCCNC(=O)CC[C@H](NC(=O)CC[C@H](NC(=O)CCCCCCCCCCCCCCCCCCC(=O)O)C(=O)O)C(=O)O)NC(=O)[C@H](C)NC(=O)[C@H](CCC(N)=O)NC(=O)[C@H](CCC(=O)O)NC(=O)[C@H](CCCNC(=N)N)NC(=O)[C@H](C)NC(=O)[C@H](C)NC(=O)[C@H](CCCNC(=N)N)NC(=O)[C@H](C)NC(=O)[C@H](CCCNC(=N)N)NC(=O)[C@H](C)NC(=O)[C@H](CCC(N)=O)NC(=O)[C@H](CCC(=O)O)NC(=O)[C@H](CC(C)C)NC(=O)[C@H](CC(C)C)NC(=O)[C@@H](NC(=O)[C@H](CCC(N)=O)NC(=O)[C@H](CC(C)C)NC(=O)[C@H](CC(C)C)NC(=O)CNC(=O)[C@@H](NC(=O)[C@@H]1CCCN1C(=O)[C@@H](NC(=O)[C@H](CC(=O)O)NC(=O)[C@H](CC(C)C)NC(=O)[C@H](CO)NC(=O)[C@H](CC(C)C)NC(=O)[C@@H](NC(=O)[C@@H](N)[C@@H](C)CC)C(C)C)C(C)C)[C@@H](C)CC)[C@@H](C)CC)[C@@H](C)O)[C@@H](C)CC)C(=O)N[C@@H](C)C(=O)N[C@@H](CCC(=O)O)C(=O)N[C@H](C(N)=O)C(C)C [SEQ ID NO: 45] (H-IVLSLDVPIGLLQILLEQARARAAREQAK([AEEA-AEEA-γGlu-γGlu-C20 diacid])TNAEI[Nle]AEV-NH2) |  |  | 200 | 0.251 | 107 | 0.52
